Reference: US9439882B2, “Compounds and compositions for the treatment of cancer” (PROMETIC BIOSCIENCES, INC., priority 2010, dated 2016)

Assays:
[1] = system: CTGF production; assay: Inhibition of TGF-induced CTGF production in NHDF (ELISA); type: cell-based; conditions: Homo sapiens, 10 ng/mL TGF-β, 48 h
Description: The effect of selected compounds on CTGF production was undertaken in normal human dermal fibroblast (NHDF) or human mesangial cells. Cells were cultured in DMEM (0.5% FBS) with or without 10 ng/mL of TGF-β for 48 h in a humidified atmosphere of 95% air-5% carbon dioxide at 37° C. CTGF measurement in the culture medium was measured using the CTGF ELISA according to the manufacturer (Prepotech) recommendations.

[2] = system: IL-12 production; assay: IL-12 production in LPS-stimulated RAW264.7 cells (ELISA); type: cell-based; conditions: 100 ng/mL LPS, 21 h; for IL-12: compound 0.5 mM
Description: The effect of selected compounds on IL-12 production was undertaken in RAW264.7 (macrophage-like) cells. RAW264.7 cells were cultured with 100 ng/mL of LPS in presence or absence of compounds for 21 h in a humidified atmosphere of 95% air-5% carbon dioxide at 37° C. IL-12 concentration in the culture medium was measured using the IL-12 ELISA according to the manufacturer (BD Biosciences) recommendations. […] Compounds have no effect on IL-12 production in the absence of LPS.

[3] = system: P815 liver metastasis; assay: P815 liver metastasis in mice; type: in vivo
Description: The syngeneic tumor P815 is a DBA/2 (H-2^d)-derived mastocytoma obtained from ATCC (TIB64). P815 cells were grown in DMEM containing 10% fetal bovine serum. At day 0, 50 μL of 5×10^5 viable P815 cells were subcutaneously injected to produce localized tumors in 6- to 8-week old DBA/2 mice. The animals were then serially monitored by manual palpation for evidence of tumor. […] Mice were sacrificed around day 23 (depending on the experiment). Serial tumor volume was obtained by bi-dimensional diameter measurements with calipers, using the formula 0.4 (a×b^2) where “a” was the major tumor diameter and “b” the minor perpendicular diameter. Tumors were palpable, in general, 3-5 days post-inoculation.
It is known that P815 cells have the capacity to metastasize to the liver.

[4] = system: P815 mastocytoma; assay: Primary P815 mastocytoma tumor growth in mice; type: in vivo
Source text: The syngeneic tumor P815 is a DBA/2 (H-2^d)-derived mastocytoma obtained from ATCC (TIB64). […] Mice were sacrificed around day 23 (depending on the experiment). […] Tumors were palpable, in general, 3-5 days post-inoculation.

[5] = system: HK-2 cells; assay: TGF-β induced epithelial to mesenchymal transition in HK-2 cells (real-time PCR of E-cadherin, CTGF, collagen 1); type: cell-based, human
Description: FIG. 20 is a bar graph showing the effect of Compound XVII on E-cadherin in normal HK-2 cells and in TGF-β induced EMT cells. Real-time PCR using human E-cadherin TaqMan® Gene Expression Assay normalized to human GAPDH endogenous control; reference is […] cells 24 h (RQ=1). *means p<0.05, and ** means p<0.01 (t-test).
FIG. 21 is a bar graph showing the effect of Compound XVII on CTGF in normal HK-2 cells and in TGF-β induced EMT cells. Real-time PCR using human CTGH TaqMan® Gene Expression Assay normalized to human GAPDH endogenous control; reference is TGF-β-treated cells 24 h (RQ=1). *means p<0.05, and ** means p<0.01 (t-test).
FIG. 22 is a bar graph showing the effect of Compound XVII on collagen 1 in normal HK-2 cells and in TGF-β induced EMT cells. Real-time PCR using human Collagen 1 TaqMan® Gene Expression Assay normalized to human GAPDH endogenous control; reference is TGF-β-treated cells 24 h (RQ=1). ** means p<0.01 (t-test).
Real-time PCR using human CTGF TaqMan® Gene Expression Assay and Collagen 1 TaqMan® Gene Expression Assay normalized to human GAPDH endogenous control; reference is TGF-β-treated cells 24 h (RQ=1).
FIG. 24 is a bar graph showing the effect of Compound I on CTGF and collagen 1 expression in normal HK-2 cells and in TGF-β induced EMT cells. Real-time PCR using human CTGF TaqMan® Gene Expression Assay and Collagen 1α1 TaqMan® Gene Expression Assay normalized to human GAPDH endogenous control; reference is TGF-β-treated cells 24 h (RQ=1). Compound I is added at 0.5 mM.
Further analysis was undertaken to determine the effect of Compoounds on EMT. The effect of Compound XVII on TGF-β induced EMT was analyzed on human epithelial […] cells (HK-2). To assess the progression of EMT, the pro-epithelial marker E-cadherin and the mesenchymal/pro-fibrotic markers CTGF and collagen 1 were assayed by quantitative real-time PCR. To determine the efficacy of Compound XVII in inhibiting TGF-β-induced EMT, verification of the ability of TGF-β to induce EMT in HK-2 cells.

[6] = system: CT-26WT colon tumor; assay: Primary colon CT-26WT tumor in mice; type: in vivo; conditions: FIG. 12 and 13; for efficacy on primary tumor CT-26 (single agent): sodium decanoate oral 200 mg/kg daily, 5-fluorouracil i.p. 40 mg/kg day 6, 13, 20, Compound XV oral
Description: The syngeneic tumor CT-26WT (CT-26) is a colon tumor cell line obtained from ATCC (CRL-2638). CT-26 cells were grown in RPMI containing 10% fetal bovine serum. At day 0, 50 μL of 5×10^6 viable CT-26 cells were subcutaneously injected to produce localized tumors in 6- to 8-week old mice. The animals were then serially monitored by manual palpation for evidence of tumor. […] Mice were sacrificed at day 25. Serial tumor volume was obtained by bi-dimensional diameter measurements with calipers, using the formula 0.4 (a×b^2) where “a” was the major tumor diameter and “b” the minor perpendicular diameter. Tumors were palpable, in general, 3-5 days post-inoculation.

[7] = TGF-β-stimulated cells, 24 h, normalized to GAPDH, sodium decanoate and Compound I at 0.5 mM
[8] = compound alone, no TGF-β, sodium decanoate and Compound I at 0.5 mM

Question: With `CCCCOc1ccc(C(CC(=O)[O-])c2cccc(F)c2)cc1.[Na+]` (stereo not shown) as the compound, how does the melting point read?
Answer: Its melting point is 135 °C.

Question: Which inhibition at 63 µM ([1]; 63 μM) does the source give for `CCCCCCCC(=O)c1ccc2c(c1)CC(C(=O)[O-])C2.[Na+]` (racemic) [Compound XIX, Sodium (RS)-5-octanoylindane-2-carboxylate] here?
Answer: The inhibition at 63 µM was 45%.

Question: And the “IL-12 (pg/mL)” value ([2]; compound 0.05 mM)?
Answer: Its value is 53 (at 0.05 mM) pg/mL.

Question: With `CCCCCCCC(=O)c1cccc2c1CC(C(=O)[O-])C2.[Na+]` (racemic) [Compound XLI, Sodium (RS)-4-Octanoylindane-2-Carboxylate] as the compound, how does the “IL-12 (pg/mL)” value ([2]; compound 0.1 mM) read?
Answer: Its value is 25 (at 0.1 mM) pg/mL.

Question: For `CCCCCCCCC(Oc1ccc(C(=O)CCCCCCC)cc1)C(=O)[O-].[Na+]` (racemic) [Compound XVII, Sodium (RS)-2-[4-octanoylphenoxy]decanoate], which “reduction of the number of mice with liver metastasis” value ([3]; 50 mg/kg, FIG. 18) is on record?
Answer: Its value is “approximately 20%”.

Question: And the P815 tumor growth ([4]; FIG. 17)?
Answer: Its P815 tumor growth is “significant reduction (p<0.05)”.

Question: And the “efficacy compared with soluble acetylsalicylic acid” value ([4]; FIG. 17)?
Answer: The value was “better efficacy to the gold standard compound”.

Question: What about the “TGF-β induced EMT” value ([5]; HK-2 cells, sodium decanoate and Compound I at 0.5 mM) of the same compound?
Answer: Its value is “significantly inhibited”.

Question: What about the E-cadherin transcript expression ([5]; TGF-β induced EMT cells, 24 h, normalized to GAPDH, FIG. 20) of the same compound?
Answer: Its E-cadherin transcript expression is “upregulation”.

Question: And the CTGF transcript expression [5, 7]?
Answer: Its CTGF transcript expression is “downregulation”.

Question: And the “collagen 1 transcript expression” value [5, 7]?
Answer: The value was “downregulation”.

Question: And the “basal expression of CTGF” value [5, 8]?
Answer: The value was “downregulate”.

Question: And the “basal expression of collagen 1” value [5, 8]?
Answer: Its value is “downregulate”.

Question: And the inhibition at 7.5 µM ([1]; 7.5 μM)?
Answer: The inhibition at 7.5 µM was 40%.

Question: And the “IL-12 (pg/mL)” value ([2]; compound 0.05 mM)?
Answer: Its value is 209 (at 0.05 mM) pg/mL.

Question: Which melting point does the source give for `CCCCCCCC(=O)c1ccc(OC(CCCCCC)C(=O)[O-])cc1.[Na+]` (racemic) [Compound XXIV, Sodium (RS)-2-[4-Octanoylphenoxy]octanoate] here?
Answer: Its melting point is 165 to 170 °C.

Question: And the “IL-12 (pg/mL)” value ([2]; compound 0.02 mM)?
Answer: The value was 12 (at 0.02 mM) pg/mL.

Question: What does the source list for `CCCCCCCCC(Oc1ccc(C(=O)CCC)cc1)C(=O)[O-].[Na+]` (racemic) [Compound XXV, Sodium (RS)-2-[4-Butyrylphenoxy]decanoate]?
Answer: melting point: 262 to 278 °C; IL-12 (pg/mL) ([2]; compound 0.04 mM): 73 (at 0.04 mM) pg/mL

Question: Which results are given for `CCCCCCCCC(Oc1ccc(C(=O)CCCCC)cc1)C(=O)[O-].[Na+]` (racemic) [Compound XXVI, Sodium (RS)-2-[4-Hexanoylphenoxy]decanoate]?
Answer: melting point: 275 to 280 °C; IL-12 (pg/mL) ([2]; compound 0.02 mM): 54 (at 0.02 mM) pg/mL

Question: Which “efficacy on primary tumor CT-26 (single agent)” value [6] does the source give for `O=c1[nH]cc(F)c(=O)[nH]1` [5-fluorouracil, reference compound] here?
Answer: The value was “weak efficacy”.

Question: Which results are given for `CCCCCc1cccc(CCC(=O)[O-])c1.[Na+]` [Compound II, Sodium salt of 3-(3-pentylphenyl)propionic acid]?
Answer: P815 tumor growth ([4]; oral 200 mg/kg, FIG. 7 and 8): significant reduction (p<0.05); inhibition at 100 µM ([1]; 100 μM): 38%; IL-12 [2]: 351 pg/mL

Question: What does the source list for `CCCCc1cccc(CCC(=O)[O-])c1.[Na+]` [Compound III]?
Answer: inhibition at 500 µM [1]: 46%; IL-12 [2]: 62 pg/mL

Question: Which inhibition at 500 µM [1] does the source give for `CCC/C=C/c1cccc(CC(=O)[O-])c1.[Na+]` [Compound IV, Sodium salt of E-(3-pent-1-enyl-phenyl)acetic acid] here?
Answer: Its inhibition at 500 µM is 34%.

Question: What about the “IL-12” value [2] of the same compound?
Answer: Its value is 19 pg/mL.

Question: What does the source list for `CCCCCc1cc(CC(=O)[O-])ccc1O.[Na+]` [Compound IX, Sodium 2-[4-Hydroxy-3-pentylphenyl]acetate]?
Answer: melting point: 193 to 197 °C; IL-12 [2]: 20 pg/mL

Question: What does the source list for `CCCCCc1cc(O)cc(CC(=O)[O-])c1.[Na+]` [Compound VIII, Sodium salt of [3-Hydroxy-5-pentylphenyl]acetic acid]?
Answer: inhibition at 200 µM [1]: 47%; IL-12 [2]: 17 pg/mL

Question: Which “IL-12” value [2] does the source give for `CCCC/C=C/c1cccc(CC(=O)[O-])c1.[Na+]` [Compound VI] here?
Answer: The value was 53 pg/mL.

Question: What does the source list for `CCCCCc1ccc(C(=O)[O-])cc1.[Na+]` [Compound XI, Sodium salt of 4-pentylbenzoic acid]?
Answer: inhibition at 500 µM [1]: 28%; IL-12 [2]: 78 pg/mL

Question: Which inhibition at 125 µM ([1]; 125 μM) does the source give for `CCCCCCc1cccc(C(=O)[O-])c1.[Na+]` [Compound XIII, Sodium salt of 3-hexylbenzoate] here?
Answer: Its inhibition at 125 µM is 29%.

Question: And the “IL-12 (pg/mL)” value ([2]; compound 0.125 mM)?
Answer: Its value is 18 (at 0.125 mM) pg/mL.

Question: For `O=C([O-])CCc1ccc(NCc2cccc(Oc3ccccc3)c2)cc1.[Na+]` [Compound XV, 3-(4-(3-phenoxy-benzylamino)phenyl) propionic acid], which “reduction of mice with liver metastasis” value ([3]; oral 200 mg/kg, p<0.05, FIG. 9 and 10) is on record?
Answer: The value was 50%.

Question: What about the P815 tumor growth ([4]; oral 200 mg/kg, FIG. 7 and 8) of the same compound?
Answer: Its P815 tumor growth is “significant reduction (p<0.05)”.

Question: What about the inhibition at 20 µM ([1]; 20 μM) of the same compound?
Answer: The inhibition at 20 µM was 22%.

Question: And the “IL-12” value [2]?
Answer: The value was 37 pg/mL.

Question: What about the “efficacy on primary tumor CT-26 (single agent)” value [6] of the same compound?
Answer: The value was “weak efficacy”.

Question: With `CCCCCCCC(=O)c1cccc(C(=O)[O-])c1.[Na+]` [Compound XVIII, Sodium 3-octanoylbenzoate] as the compound, how does the inhibition at 200 µM [1] read?
Answer: The inhibition at 200 µM was 49%.

Question: What about the “IL-12” value [2] of the same compound?
Answer: The value was 1099 pg/mL.

Question: Which “tumor growth T/C” value ([6]; combination, from day 16 to day 26) does the source give for sodium decanoate and 5-fluorouracil here?
Answer: Its value is “approximately 40%”.
